# Patent US7157442B2, “Antibacterial compound” (Sankyo Company, Limited, priority 1999, dated 2007)
# Tested on: M. tuberculosis No. 74
# Assay: In vitro antibacterial activity (2): MIC by broth dilution method
# Format: cell-based, Mycobacterium tuberculosis
# Conditions: rifampicin-resistant strain; for MIC: Mycobacterium tuberculosis, NO.74, Middlebrook 7H9 broth, 35° C. for 10–21 days, read-out: MICs against Mycobacterium tuberculosis, M. tuberculosis No. 74
Structure (SMILES),MIC,antibacterial activity against M. tuberculosis No. 74 (in words)
CO[C@H]1[C@@H](O)[C@H](n2ccc(=O)[nH]c2=O)O[C@@H]1[C@@H](O[C@H]1OC(C(=O)Nc2ccc(F)c(F)c2)=C[C@H](O)[C@@H]1O)C(N)=O [Exemplification Compound No. 3712],8 µg/mL,excellent antibacterial activity
"CO[C@H]1/C=C/O[C@@]2(C)Oc3c(C)c(O)c4c(O)c(c(/C=N/N5CCN(C)CC5)c(O)c4c3C2=O)NC(=O)/C(C)=C\C=C\[C@H](C)[C@H](O)[C@@H](C)[C@@H](O)[C@@H](C)[C@H](OC(C)=O)[C@@H]1C [rifampicin, reference compound]",128 µg/mL,–
